In patent publication US4434290A, “Pyrido (4,3-B) carbazoles substituted in the 1 position by a polyamine chain” (priority 1978, dated 1984):

Assays:
leukemia L1210 = test: Leukemia L1210 in vivo, measurement of survival time (Table XII); set-up: species or system B6 D2 Fl (C 57 Bl/6×DBA/2) Fl mice; MST: unit not given here; settings: 10^5 cells, i.p.
Protocol: The following pharmacological trials relate to the effects of the compounds of the invention on leukemia L1210 in vivo.
G. Proc. Nat. Acad. Sci. 1972, 69, 1042-1047 and Schepartz S., Screening 1971, Cancer Chemother. Part 3; Vol. 2, p. 3].
The properties were determined by the curative action inoculated experimental leukemia L1210. This leukemia was maintained on B6 D2 Fl (C 57 Bl/6×DBA/2) Fl mice in the proportion of 6 or 10 mice per experimental batch. The compounds to be tested were injected by the intraperitoneal route one or several days after inoculation of the cells (1 injection only). […] The death interval was determined, the first figure of the Table indicating the date of the first mouse death and the second the date of the last mouse death. The mean survival time was also measured (MST). A characteristic value is the percentage of increased life span (ILS %). This value (Cancer. Res. 1971, 31, 1883-1887) is the ratio: [formula] where S^t =survival of treated animals and
S^c =survival of control animals.

[1] = system: cells of viro-induced leukemia of Friend; test: In vitro cytotoxic study on cells of the Friend leukemia of the mouse (Table XV); type: cell-based; settings: for IC50 / IC100: Mus musculus, 24 h; for IC50: read-out: LD 50 (50% lethal dose); for IC100: read-out: LD 100 (100% lethal dose); for LD 50 HUM / LD 50 product: ratio to reference HUM
Protocol: "In vitro" cytotoxic study of the compounds of the invention on the cells of viro-induced leukemia of Friend in the mouse [J. Exp. Med. 1957, 105, p. 307-318].
The cells were grown in suspension in the RPMI 1640 medium [catalogue of GIBCO Bio-Cult-Ltd, Washington Road Sandyford Industrial Estate Paisley PA3 4EP Renfrewshire Scotland] supplement with 20% of embryonary calf serum, with penicillin and with streptopycin. The duplication time of the culture was about 11 hours. The growth factor is equal to 1 or very close to 1 (all the cells multiplying).
The cultures were seeded at times t=0 at the concentration of 2×10^5 cells per ml in Falcon dishes containing 4 ml of medium. 24 hours later, the product to be tested (in solution, in acetic water) was added, at the moment when the cells were in the exponential growth phase. 24 hours after the addition of the product, the cells were counted and the percentage of living cells determined by an exclusion test with trypan blue.

C13/8 cells = test: In vitro cytotoxic study on hamster cells, complete inhibition of growth, C13/8 (Table XVI); type: cell-based; settings: for IC (100 (complete growth inhibition, minimal)): Mesocricetus auratus, read-out: Minimal dose leading to a complete inhibition of the growth
Description: (§1) Cytotoxic "in vitro" study on hamster cells on leukemia L1210 cells of the serie.
In particular, the line BHK 21 of hamster cells and a clone derived from this line were used, converted by the virus of the hamster sarcoma (clone HS5).
After detachment by trypsin, the cells were placed under culture in plastic Petri dishes of 35 mm diameter at the concentration of 2.10^5 cells/dish, in a "Eagle" culture medium supplemented with "Bactotryptophosphate Broth Difco" and with 10% of calf serum [M. STOKER and I. MAC-PHERSON Virology, 14, 1961, 359].
(§2) After 5 hours, the cells were attached to a plastic support and the products to be tested whose solutions had been formed in water or in DMSO (dimethylsulphoxide) if the product was little soluble in water, was added. In the latter case a control was carried out with the same final concentration of DMSO in the culture medium.
(§3) The state of the cells was examined 24, 48 and 72 hours later.

HS5 cells = test: In vitro cytotoxic study on hamster cells converted by the virus of the hamster sarcoma, clone HS5 (Table XVI); type: cell-based; settings: for IC (100 (complete growth inhibition, minimal)): Mesocricetus auratus, read-out: Minimal dose leading to a complete inhibition of the growth
Protocol: Cytotoxic "in vitro" study on hamster cells on leukemia L1210 cells of the serie. In particular, the line BHK 21 of hamster cells and a clone derived from this line were used, converted by the virus of the hamster sarcoma (clone HS5). […] STOKER and […] Virology, 14, 1961, 359]. After 5 hours, the cells were attached to a plastic support and the products to be tested whose solutions had been formed in water or in DMSO (dimethylsulphoxide) if the product was little soluble in water, was added. In the latter case a control was carried out with the same final concentration of DMSO in the culture medium. The state of the cells was examined 24, 48 and 72 hours later.

L1210 cells = test: In vitro cytotoxic study on leukemia L1210 cells, complete inhibition of growth (Table XVI); type: cell-based; settings: for IC (100 (complete growth inhibition, minimal)): Mus musculus, read-out: Minimal dose leading to a complete inhibition of the growth
Protocol: as §1, §2, §3
In the case of the L1210 cells, the tests were carried out in a medium gelled with agarose, the L1210 cells growing in suspension.

cell cultures = test: Cytotoxicity in pharmacological tests (general statements); type: cell-based
[2] = L1210, medium gelled with agarose

SMILES: CCN(CC)CCCNc1nccc2c(C)c3[nH]c4ccc(O)cc4c3cc12 [Compound 29]
- Death interval (mice) (leukemia L1210; 10 mg/kg, day +4): 15-17
- ILS % (leukemia L1210; 10 mg/kg, day +4): 55.8%
- MST (leukemia L1210; 10 mg/kg, day +4): 16.2
- Death interval (mice) (leukemia L1210; 20 mg/kg, day +4): 10-15
- ILS % (leukemia L1210; 20 mg/kg, day +4): 19.2%
- MST (leukemia L1210; 20 mg/kg, day +4): 12.4
- activity compared with HUM / known derivatives [1]: more active than the derivatives already known
- IC50 [1]: 17 nM
- IC100 [1]: 0.04 µM
- LD 50 HUM / LD 50 product [1]: 18

SMILES: COc1ccc2[nH]c3c(C)c4ccnc(NCCCCCCN)c4cc3c2c1 [Compound 15]
- IC50 [1]: 800 nM
- IC100 [1]: 2 µM
- LD 50 HUM / LD 50 product [1]: 0.4
- IC (100 (complete growth inhibition, minimal)) (C13/8 cells): 2 µM
- IC (100 (complete growth inhibition, minimal)) (HS5 cells): 2 µM

SMILES: COc1ccc2[nH]c3c(C)c4ccnc(NCCCN)c4cc3c2c1 [Compound 12]
- IC50 [1]: 250 nM
- IC100 [1]: 0.7 µM
- LD 50 HUM / LD 50 product [1]: 1.5
- IC (100 (complete growth inhibition, minimal)) (C13/8 cells): 2 µM
- IC (100 (complete growth inhibition, minimal)) (HS5 cells): 2 µM

SMILES: COc1ccc2[nH]c3c(C)c4ccnc(NCCN)c4cc3c2c1 [Compound 11]
- activity compared with HUM / known derivatives [1]: more active than the derivatives already known
- IC50 [1]: 100 nM
- IC100 [1]: 0.25 µM
- LD 50 HUM / LD 50 product [1]: 3
- IC (100 (complete growth inhibition, minimal)) (C13/8 cells): 1 µM
- IC (100 (complete growth inhibition, minimal)) (HS5 cells): 1 µM

SMILES: CCN(CC)CCCNc1nccc2c(C)c3[nH]c4ccc(OCc5ccccc5)cc4c3cc12 [Compound 24]
- IC50 [1]: 3000 nM
- IC100 [1]: 10 µM
- LD 50 HUM / LD 50 product [1]: 0.1
- IC (100 (complete growth inhibition, minimal)) (L1210 cells; [2]): 0.4 µM
- activity compared with the reference BD40 (L1210 cells; summary of Table XVI): almost as active as the reference dipyrido-indole (BD40)

SMILES: Cc1c2cc[n+](C)cc2c(C)c2c1[nH]c1ccc(O)cc12 [HUM, 2-methyl-9-hydroxy ellipticinium acetate, reference compound]
- IC50 [1]: 300 nM
- IC100 [1]: 0.8 µM

SMILES: COc1ccc2[nH]c3c(C)c4ccnc(NCCCN(C)C)c4c(C)c3c2c1 [Compound 26]
- Death interval (mice) (leukemia L1210; 10 mg/kg, day +4): 12-16
- ILS % (leukemia L1210; 10 mg/kg, day +4): 38.5%
- MST (leukemia L1210; 10 mg/kg, day +4): 14.4
- Death interval (mice) (leukemia L1210; 20 mg/kg, day +4): 16-19
- ILS % (leukemia L1210; 20 mg/kg, day +4): 67.3%
- MST (leukemia L1210; 20 mg/kg, day +4): 17.4
- IC50 [1]: 400 nM
- IC100 [1]: 1 µM
- LD 50 HUM / LD 50 product [1]: 0.75

SMILES: COc1ccc2[nH]c3c(C)c4ccnc(NCCCN(C)C)c4cc3c2c1 [Compound 17]
- IC50 [1]: 1500 nM
- IC100 [1]: 3 µM
- LD 50 HUM / LD 50 product [1]: 0.2
- IC (100 (complete growth inhibition, minimal)) (C13/8 cells): 1 µM
- IC (100 (complete growth inhibition, minimal)) (HS5 cells): 2 µM

SMILES: CCN(CC)CCCNc1nccc2c(C)c3[nH]c4ccncc4c3cc12 [BD 40, reference compound]
- Minimal dose leading to a complete inhibition of the growth (C13/8 cells): 0.25 μ M
- Minimal dose leading to a complete inhibition of the growth (HS5 cells): 0.25 μ M
- Minimal dose leading to a complete inhibition of the growth (L1210 cells; [2]): 0.2 μ M

SMILES: COc1ccc2[nH]c3c(C)c4ccnc(NCCCN)c4c(C)c3c2c1 [Compound 25]
- Death interval (mice) (leukemia L1210; 10 mg/kg, day +4): 12-13
- ILS % (leukemia L1210; 10 mg/kg, day +4): 21.1%
- MST (leukemia L1210; 10 mg/kg, day +4): 12.6
- Death interval (mice) (leukemia L1210; 20 mg/kg, day +4): 8-12
- MST (leukemia L1210; 20 mg/kg, day +4): 9.6
- activity compared with HUM / known derivatives [1]: more active than the derivatives already known
- IC50 [1]: 120 nM
- IC100 [1]: 0.3 µM
- LD 50 HUM / LD 50 product [1]: 3
- IC (100 (complete growth inhibition, minimal)) (L1210 cells; [2]): 0.9 µM

SMILES: COc1ccc2[nH]c3c(C)c4ccnc(N5CCCCC5)c4cc3c2c1 [Compound 21]
- IC50 [1]: 35000 nM
- IC100 [1]: 100 µM
- LD 50 HUM / LD 50 product [1]: 1.1
- IC (100 (complete growth inhibition, minimal)) (C13/8 cells): > 5 µM
- IC (100 (complete growth inhibition, minimal)) (HS5 cells): > 5 µM
- cytotoxic activity (cell cultures): not cytotoxic

SMILES: Cc1c2ccnc(NCCCN)c2cc2c1[nH]c1ccc(OCc3ccccc3)cc12 [Compound 23]
- IC50 [1]: 300 nM
- IC100 [1]: 0.9 µM
- LD 50 HUM / LD 50 product [1]: 1

SMILES: COc1ccc2[nH]c3c(C)c4ccnc(NCCN(C)C)c4cc3c2c1 [Compound 16]
- IC50 [1]: 800 nM
- IC100 [1]: 3 µM
- LD 50 HUM / LD 50 product [1]: 0.4
- IC (100 (complete growth inhibition, minimal)) (C13/8 cells): 1 µM
- IC (100 (complete growth inhibition, minimal)) (HS5 cells): 2 µM

SMILES: CCN(CC)CCCNc1nccc2c(C)c3[nH]c4ccc(OC)cc4c3cc12 [Compound 18]
- Death interval (mice) (leukemia L1210; 20 mg/kg, day +3): 13-19
- ILS % (leukemia L1210; 20 mg/kg, day +3): 38.8%
- MST (leukemia L1210; 20 mg/kg, day +3): 16.1
- IC50 [1]: 500 nM
- IC100 [1]: 1.5 µM
- LD 50 HUM / LD 50 product [1]: 0.6
- IC (100 (complete growth inhibition, minimal)) (C13/8 cells): 5 µM
- IC (100 (complete growth inhibition, minimal)) (HS5 cells): 5 µM

SMILES: COc1ccc2[nH]c3c(C)c4ccnc(NCCCCN)c4cc3c2c1 [Compound 13]
- IC50 [1]: 7000 nM
- IC100 [1]: 15 µM
- LD 50 HUM / LD 50 product [1]: 0.04
- IC (100 (complete growth inhibition, minimal)) (C13/8 cells): 2 µM
- IC (100 (complete growth inhibition, minimal)) (HS5 cells): 2 µM

SMILES: CCN(CC)CCCC(C)Nc1nccc2c(C)c3[nH]c4ccc(OC)cc4c3cc12 (centres unmarked) [Compound 19]
- Death interval (mice) (leukemia L1210; 10 mg/kg, day +4): 11-16
- ILS % (leukemia L1210; 10 mg/kg, day +4): 25%
- MST (leukemia L1210; 10 mg/kg, day +4): 13
- Death interval (mice) (leukemia L1210; 20 mg/kg, day +4): 11-16
- ILS % (leukemia L1210; 20 mg/kg, day +4): 19.2%
- MST (leukemia L1210; 20 mg/kg, day +4): 12.4
- IC50 [1]: 1300 nM
- IC100 [1]: 3 µM
- LD 50 HUM / LD 50 product [1]: 0.2

SMILES: COc1ccc2[nH]c3c(C)c4ccnc(NCCCCCN)c4cc3c2c1 [Compound 14]
- IC50 [1]: 500 nM
- IC100 [1]: 1.5 µM
- LD 50 HUM / LD 50 product [1]: 0.6
- IC (100 (complete growth inhibition, minimal)) (C13/8 cells): 2 µM
- IC (100 (complete growth inhibition, minimal)) (HS5 cells): 2 µM
